Laboratory results reported in US6103888A, “Mammalian cationic proteins having lipopolysaccharide binding and anti-coagulant activity” (priority 1999, dated 2000).
Several values for one entry are separate records, joined by “and”; a condition that tells them apart may be missing. Equal values may be shown once.

Assays:
[1] = test system: thioglycollate-stimulated murine peritoneal macrophages; test: LPS-induced tissue factor generation by macrophages (clotting assay); type: cell-based
Experimental: Tissue factor assay. Salmonella minnesota smooth LPS was incubated with each peptide (1 μg/ml) for 5 min., then the mixture was added to peritoneal murine macrophages obtained 4 days after thioglycollate stimulation. Cells were cultured for 6 hours prior to assay of tissue factor by clotting assay.
Various concentrations of Salmonella minnesota smooth LPS were incubated with each peptide (197 (RNIP), 36-1, 32-1, and 50-2) at 37° C. for 5 minutes prior to mixing with thioglycollate-stimulated murine peritoneal macrophages. Production of tissue factor after 6 hr. was measured by clotting assay. […] In the absence of LPS no tissue factor is synthesized by these cells.

[2] = test system: human mononuclear cells; test: LPS-induced tissue factor by human mononuclear cells (clotting assay); type: cell-based
Experimental: Human mononuclear cells were separated from citrated peripheral blood by centrifugation over Sodium-metrizoate-Ficoll (lymphocyte Separation Medium, Japan Antibody Institute, Gumma). The resulting mixed mononuclear cell suspension was washed 3 times with RPMI 1640 media. Cell suspension (1×10^6 /ml) was stimulated with LPS for 16 to 18 hr.
Veronal buffered saline (VBS) was added to the cell pellet, lysed by 3 cycles of freeze/thaw and sonicated for 10 sec with a hand-held sonicator microbe (Handy Sonic, model UR-20P, Tomy Seiko LTD, Tokyo). Tissue factor activity was tested in modified unactivated partial thromboplastin time (7). One tenth ml of cell lysate (1×10^6 /ml) was preincubated with mouse plasma at 37° C. for 3 min. Then 0.1 ml of 25 mM-CaCl2 which contains phospholipid was added to the mixture and clotting time was measured using a fibrometer (Bio Quest Division, Becton Dickinson, Cokeysville, USA). A standard curve obtained from serial two-fold dilutions of rabbit brain thromboplastic (Simplastin, Ono Pharmaceutical Co.) was used to transpose tissue factor activity into arbitrary tissue factor units (1 μg/ml) suspension of rabbit brain was assigned a value of 1,000 units).
The mean tissue factor units+standard error was determined from three to four samples. Student's t test for unpair data was used to determine the statistically significant differences. A two-tailed P value of <0.05 was considered significant. […]

[3] = test system: E. coli 055:B5 LPS; test: Inhibition of RNIP-mediated hemagglutination by LPS preparation; type: binding; conditions: Peptide #36-1 16 μg/ml, RNIP (#197) 25 μg/ml preincubated with LPS 37° 30 minutes
Experimental: (§1) For hemagglutination assays, erythrocytes were sensitized with LPS as follows. One ml of 1% erythrocyte suspension (human 0 type, C3H/HeN mouse or sheep) was mixed with 0.2 ml of LPS solution and incubated at 37° C. for 30 min, followed by washing with phosphate buffered saline (PBS), and then the concentration of suspension was adjusted to 1.0%. In the case of S-LPS, the solution was heated at 100° C. for 1 hour before sensitization of erythrocytes. […] Activity of CAP was expressed as a minimum agglutinating concentration (MAC) of CAP. According to the method of Kirikae et al. (1986) Microbiol. Immunol. 30:269-274, 50 μl of 2-fold serial dilution of Re-LPS was added to 50 μl of 1.0% rabbit erythrocyte suspension, and incubated at 37° C. for 3 hour. Minimum agglutinating concentration of Re-LPS was expressed as 1 HA unit.
(§2) Another series of experiments was performed to determine if the #36-1 and #197 (RNIP) peptides were capable of binding to LPS from various species of Gram-negative bacteria. For these experiments, sheep red blood cells were sensitized with Salmonella minnesota Re-LPS. Peptides #36-1 and #197 (RNIP) were preincubated with various preparations of LPS. Both peptides bind to a diverse group of lipopolysaccharides.
(§3) +Peptide #361 (16 μg/ml) and RNIP (#197) (25 μg/ml) were
(§4) preincubated with each LPS preparation at 37° for 30 minutes, and
(§5) each reaction mixture was added to sheep erythrocytes sensitized with […]

[4] = test system: E. coli J5 LPS; test: as above; type: binding; conditions: Peptide #36-1 16 μg/ml, RNIP (#197) 25 μg/ml preincubated with LPS 37° 30 minutes
Experimental: as §1, §2, §3, §4, §5

[5] = test system: Pseudomonas aeruginosa F-D Type I LPS; test: as above; type: binding; conditions: Peptide #36-1 16 μg/ml, RNIP (#197) 25 μg/ml preincubated with LPS 37° 30 minutes
Experimental: as §1, §2, §3, §4, §5

[6] = test system: E. coli 0127:B8 LPS; test: as above; type: binding; conditions: Peptide #36-1 16 μg/ml, RNIP (#197) 25 μg/ml preincubated with LPS 37° 30 minutes
Experimental: as §1, §2, §3, §4, §5

[7] = test system: Salmonella minnesota R595 LPS; test: as above; type: binding; conditions: Peptide #36-1 16 μg/ml, RNIP (#197) 25 μg/ml preincubated with LPS 37° 30 minutes
Experimental: as §1, §2, §3, §4, §5

[8] = test system: Klebsiella pneumoniae LPS; test: as above; type: binding; conditions: Peptide #36-1 16 μg/ml, RNIP (#197) 25 μg/ml preincubated with LPS 37° 30 minutes
Experimental: as §1, §2, §3, §4, §5

[9] = test system: E. coli 0111:B4 LPS; test: as above; type: binding; conditions: Peptide #36-1 16 μg/ml, RNIP (#197) 25 μg/ml preincubated with LPS 37° 30 minutes
Experimental: as §1, §2, §3, §4, §5

[10] = biological target: T1, factor X (Homo sapiens, UniProt P00742); test: Factor X activation by tissue factor and factor VII, synthetic substrate S-2222; type: biochemical; conditions: synthetic substrate; listed as 197
T1 construct: purchased Sigma Chemical Co., St. Louis, Mo
T1 sequence (P00742 183-488): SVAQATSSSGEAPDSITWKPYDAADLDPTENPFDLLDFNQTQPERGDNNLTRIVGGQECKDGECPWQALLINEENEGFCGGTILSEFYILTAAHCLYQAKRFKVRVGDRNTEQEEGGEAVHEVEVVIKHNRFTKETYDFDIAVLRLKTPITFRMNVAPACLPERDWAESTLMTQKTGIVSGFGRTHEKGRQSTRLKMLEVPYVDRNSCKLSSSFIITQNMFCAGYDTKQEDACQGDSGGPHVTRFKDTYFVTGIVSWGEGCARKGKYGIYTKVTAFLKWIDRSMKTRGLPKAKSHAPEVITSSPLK
T1 sequence (P00742 41-179): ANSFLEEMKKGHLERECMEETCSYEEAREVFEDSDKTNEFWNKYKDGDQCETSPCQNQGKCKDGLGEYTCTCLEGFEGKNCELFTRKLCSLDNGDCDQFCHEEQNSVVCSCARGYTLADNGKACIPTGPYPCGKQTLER
Experimental: Factor Xa activity using synthetic substrate. A reaction mixture of factor VII (1 unit/ml, 200 μl), factor X (1 unit/ml, 200 μl), tissue factor (2.5 mg/ml, 50 μl), 25 mM-CaCl2 (50 μl) and 50 μl of several concentration of peptide was incubated at 37° C. for 10 min. To 200 Al of the reaction mixture, 60 μl of 4 mM S-2222, a synthetic substrate for factor Xa, and 340 μl of Tris-HCl buffer, pH 8.2, was added and further incubated for 15 min. The reaction was stopped by adding 60 μl of 50% acetic acid, and OD for p-nitroaniline was read at 405 nm.

[11] = test system: Salmonella minnesota ReLPS sensitized sheep erythrocytes; test: LPS hemagglutination assay (MAC); type: binding
Experimental: as §1

[12] = LPS 0.1 μg/ml, peptide HA units: RNIP 2, CAP-18 1, HP-1 4, HP-2 2

Substance: RNIP: rabbit reactive nitrogen inhibitory protein, amino acids 135-171 of SEQ ID NO:4; purified from granulocytes (Tables 1-3) or synthetic (#197) (GLRKRLRKFRNKIKEKLKKIGQKIQGLLPKLAPRTDY)
- inhibition of LPS-induced tissue factor generation, peptide added after LPS ([1]; added as late as 3 hours after the LPS stimulus): Significant inhibition
- inhibition of LPS induced tissue factor (in words) ([1]; peptides 1 μg/ml incubated with S. minnesota smooth LPS 5 minutes, 6 hr): inhibition
- Inhibition (%) [2, 12]: 51% and 41%
- Tissue Factor Units, value in parentheses (ratio to unstimulated control) [2, 12]: 9.0
- Δ Units (%) ([2]; LPS 0.1 μg/ml, relative to LPS alone (100), 960 min): 49% and 59%
- Tissue Factor Units, value in parentheses (ratio to unstimulated control) ([2]; no LPS, peptide alone): 1.3
- Tissue factor units ([2]; no LPS, peptide alone): 636 ± 141 Units ×10^3 /3.6 × 10^4 cells
- Δ Units ([2]; no LPS, peptide alone): 144 Units
- MIC, minimal inhibitory concentration of LPS [3]: 62.5 µg/mL
- MIC, minimal inhibitory concentration of LPS [4]: 15.6 µg/mL
- MIC, minimal inhibitory concentration of LPS [5]: 15.6 µg/mL
- MIC, minimal inhibitory concentration of LPS [6]: 62.5 µg/mL
- MIC, minimal inhibitory concentration of LPS [7]: 62.5 µg/mL
- MIC, minimal inhibitory concentration of LPS [8]: 62.5 µg/mL
- MIC, minimal inhibitory concentration of LPS [9]: 31.3 µg/mL
- IC50, Tissue factor VII, X to Xa [10]: 0.3 to 0.7 µg/mL
- Hemagglutination [MAC], minimum agglutinating concentration [11]: 7.9 µg/mL
